# In patent US11965039B2, “Compstatin analogues and their medical uses” (priority 2018, dated 2024):
# Positions of bridges follow the written chain, without caps; N, C: chain ends. Non-standard residues stand in square brackets, D forms with d. Residues, ends and D or L forms follow the SMILES beside them. Trp(1-Me) = Cn1cc(C[C@H](N)C(=O)O)c2ccccc21; 2Nal = N[C@@H](Cc1ccc2ccccc2c1)C(=O)O; Sar = CNCC(=O)O
# What was measured:
# [1] = test system: classical complement pathway; assay: In vitro haemolysis assay (inhibition of classical complement pathway); type: cell-based, human; settings: human serum, sensitized sheep red blood cells; Table 3, given as upper bounds; read-out: IC50, inhibition of hemolysis
# Method in brief: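 Compound dilutions preincubated 15 min at room temperature with diluted human serum (titrated per batch for 70-90% maximal haemolysis), then antibody-sensitized sheep RBC (10^7/well) added for 30 min at 37 °C in Tris/casein buffer, pH 7.4. Stopped with EDTA; haemolysis read at 405 nm; IC50 by 4PL fit.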
# [2] = Solubility test at 10 mg/mL (visual inspection and light scattering); type: physicochemical; settings: for Solubility, Condition 1: Acetate pH 4; for Solubility, Condition 2: Acetate pH 5; for Solubility, Condition 3: Phosphate pH 6; for Solubility, Condition 4: Phosphate pH 7; for Solubility, Condition 5: Phosphate pH 7.5
SMILES,IC50 [1] [nM],"Solubility, Condition 1 [2]","Solubility, Condition 2 [2]","Solubility, Condition 3 [2]","Solubility, Condition 4 [2]","Solubility, Condition 5 [2]"
CC[C@H](C)[C@@H]1NC(=O)[C@@H](NC(=O)[C@H](Cc2ccccc2)NC(=O)[C@H](C)NC(=O)[C@H](CO)NC(=O)CNC(=O)[C@H](CCC(=O)O)NC(C)=O)CSSC[C@@H](C(=O)N(C)CC(=O)N[C@@H](CCC(=O)O)C(N)=O)NC(=O)[C@H](CCCNC(=N)N)NC(=O)[C@H](Cc2c[nH]cn2)NC(=O)[C@H](CCC(=O)O)NC(=O)CNC(=O)[C@H](Cc2c[nH]c3ccccc23)NC(=O)[C@H](CC(=O)O)NC(=O)[C@H](CCC(N)=O)NC(=O)[C@H](Cc2c[nH]c3ccccc23)NC1=O [Compound 45] (Ac-EGSAFCIWQDWGEHRC[Sar]E-NH2; disulfide 6-16),< 100,"− (“−” denotes lack of solubility at the given condition, as UV absorbance at 340 nm exceeds 0.1 AU and/or it is visibly turbid or contains particles)","+ (“+” denotes solubility at the given condition, as determined by UV absorbance being less than 0.1 AU at 340 nm and the sample being clear when manually inspected)","+ (“+” denotes solubility at the given condition, as determined by UV absorbance being less than 0.1 AU at 340 nm and the sample being clear when manually inspected)","+ (“+” denotes solubility at the given condition, as determined by UV absorbance being less than 0.1 AU at 340 nm and the sample being clear when manually inspected)","+ (“+” denotes solubility at the given condition, as determined by UV absorbance being less than 0.1 AU at 340 nm and the sample being clear when manually inspected)"
CC[C@H](C)[C@H](NC(=O)[C@H](C)NC(=O)[C@H](CO)NC(=O)CNC(=O)[C@H](CCC(=O)O)NC(C)=O)C(=O)N[C@H]1CSSC[C@@H](C(=O)N(C)CC(=O)N[C@@H](CCC(=O)O)C(N)=O)NC(=O)[C@H](CCCNC(=N)N)NC(=O)[C@H](Cc2c[nH]cn2)NC(=O)[C@H](CCC(=O)O)NC(=O)CNC(=O)[C@H](Cc2c[nH]c3ccccc23)NC(=O)[C@H](CC(=O)O)NC(=O)[C@H](CCC(N)=O)NC(=O)[C@H](Cc2cn(C)c3ccccc23)NC(=O)[C@H]([C@@H](C)CC)NC1=O [Compound 49] (Ac-EGSAICI[Trp(1-Me)]QDWGEHRC[Sar]E-NH2; disulfide 6-16),< 100,"− (“−” denotes lack of solubility at the given condition, as UV absorbance at 340 nm exceeds 0.1 AU and/or it is visibly turbid or contains particles)","− (“−” denotes lack of solubility at the given condition, as UV absorbance at 340 nm exceeds 0.1 AU and/or it is visibly turbid or contains particles)","+ (“+” denotes solubility at the given condition, as determined by UV absorbance being less than 0.1 AU at 340 nm and the sample being clear when manually inspected)","+ (“+” denotes solubility at the given condition, as determined by UV absorbance being less than 0.1 AU at 340 nm and the sample being clear when manually inspected)","+ (“+” denotes solubility at the given condition, as determined by UV absorbance being less than 0.1 AU at 340 nm and the sample being clear when manually inspected)"
CC[C@H](C)[C@H](NC(=O)[C@H](C)NC(=O)[C@H](CO)NC(=O)CNC(=O)[C@H](CCC(=O)O)NC(C)=O)C(=O)N[C@H]1CSSC[C@@H](C(=O)N(C)CC(=O)N[C@@H](CCC(=O)O)C(N)=O)NC(=O)[C@H](CCCNC(=N)N)NC(=O)[C@H](Cc2c[nH]cn2)NC(=O)[C@H](CCC(=O)O)NC(=O)CNC(=O)[C@H](Cc2c[nH]c3ccccc23)NC(=O)[C@H](CC(=O)O)NC(=O)[C@H](CCC(N)=O)NC(=O)[C@H](Cc2ccc3ccccc3c2)NC(=O)[C@H]([C@@H](C)CC)NC1=O [Compound 50] (Ac-EGSAICI[2Nal]QDWGEHRC[Sar]E-NH2; disulfide 6-16),< 100,"− (“−” denotes lack of solubility at the given condition, as UV absorbance at 340 nm exceeds 0.1 AU and/or it is visibly turbid or contains particles)","− (“−” denotes lack of solubility at the given condition, as UV absorbance at 340 nm exceeds 0.1 AU and/or it is visibly turbid or contains particles)","+ (“+” denotes solubility at the given condition, as determined by UV absorbance being less than 0.1 AU at 340 nm and the sample being clear when manually inspected)","+ (“+” denotes solubility at the given condition, as determined by UV absorbance being less than 0.1 AU at 340 nm and the sample being clear when manually inspected)","+ (“+” denotes solubility at the given condition, as determined by UV absorbance being less than 0.1 AU at 340 nm and the sample being clear when manually inspected)"
CC[C@H](C)[C@H](NC(C)=O)C(=O)N[C@H]1CSSC[C@@H](C(=O)N[C@H](C(=O)NCC(=O)N[C@@H](C)C(=O)N[C@@H](CCC(=O)O)C(=O)N[C@@H](CO)C(N)=O)[C@@H](C)O)NC(=O)[C@H](CCCNC(=N)N)NC(=O)[C@H](Cc2c[nH]cn2)NC(=O)[C@H](CCC(=O)O)NC(=O)CNC(=O)[C@H](Cc2c[nH]c3ccccc23)NC(=O)[C@H](CC(=O)O)NC(=O)[C@H](CCC(N)=O)NC(=O)[C@H](Cc2cn(C)c3ccccc23)NC(=O)[C@H]([C@@H](C)CC)NC1=O [Compound 51] (Ac-ICI[Trp(1-Me)]QDWGEHRCTGAES-NH2; disulfide 2-12),< 100,"− (“−” denotes lack of solubility at the given condition, as UV absorbance at 340 nm exceeds 0.1 AU and/or it is visibly turbid or contains particles)","− (“−” denotes lack of solubility at the given condition, as UV absorbance at 340 nm exceeds 0.1 AU and/or it is visibly turbid or contains particles)","+ (“+” denotes solubility at the given condition, as determined by UV absorbance being less than 0.1 AU at 340 nm and the sample being clear when manually inspected)","+ (“+” denotes solubility at the given condition, as determined by UV absorbance being less than 0.1 AU at 340 nm and the sample being clear when manually inspected)","+ (“+” denotes solubility at the given condition, as determined by UV absorbance being less than 0.1 AU at 340 nm and the sample being clear when manually inspected)"
CC[C@H](C)[C@H](NC(C)=O)C(=O)N[C@H]1CSSC[C@@H](C(=O)N[C@H](C(=O)NCC(=O)N[C@@H](C)C(=O)N[C@@H](CCC(=O)O)C(=O)N[C@@H](CO)C(N)=O)[C@@H](C)O)NC(=O)[C@H](CCCNC(=N)N)NC(=O)[C@H](Cc2c[nH]cn2)NC(=O)[C@H](CCC(=O)O)NC(=O)CNC(=O)[C@H](Cc2c[nH]c3ccccc23)NC(=O)[C@H](CC(=O)O)NC(=O)[C@H](CCC(N)=O)NC(=O)[C@H](Cc2ccc3ccccc3c2)NC(=O)[C@H]([C@@H](C)CC)NC1=O [Compound 52] (Ac-ICI[2Nal]QDWGEHRCTGAES-NH2; disulfide 2-12),< 100,"− (“−” denotes lack of solubility at the given condition, as UV absorbance at 340 nm exceeds 0.1 AU and/or it is visibly turbid or contains particles)","− (“−” denotes lack of solubility at the given condition, as UV absorbance at 340 nm exceeds 0.1 AU and/or it is visibly turbid or contains particles)","+ (“+” denotes solubility at the given condition, as determined by UV absorbance being less than 0.1 AU at 340 nm and the sample being clear when manually inspected)","+ (“+” denotes solubility at the given condition, as determined by UV absorbance being less than 0.1 AU at 340 nm and the sample being clear when manually inspected)","+ (“+” denotes solubility at the given condition, as determined by UV absorbance being less than 0.1 AU at 340 nm and the sample being clear when manually inspected)"
CC[C@H](C)[C@@H]1NC(=O)[C@@H](NC(=O)[C@H](Cc2ccccc2)NC(=O)[C@H](C)NC(=O)[C@H](CO)NC(=O)CNC(=O)[C@H](CCC(=O)O)NC(C)=O)CSSC[C@@H](C(=O)N(C)CC(=O)N[C@@H](CCC(=O)O)C(N)=O)NC(=O)[C@H](CCCNC(=N)N)NC(=O)[C@H](Cc2c[nH]cn2)NC(=O)[C@H](CCC(=O)O)NC(=O)CNC(=O)[C@H](Cc2c[nH]c3ccccc23)NC(=O)[C@H](CC(=O)O)NC(=O)[C@H](CCC(N)=O)NC(=O)[C@H](Cc2cn(C)c3ccccc23)NC1=O [Compound 53] (Ac-EGSAFCI[Trp(1-Me)]QDWGEHRC[Sar]E-NH2; disulfide 6-16),< 100,"− (“−” denotes lack of solubility at the given condition, as UV absorbance at 340 nm exceeds 0.1 AU and/or it is visibly turbid or contains particles)","− (“−” denotes lack of solubility at the given condition, as UV absorbance at 340 nm exceeds 0.1 AU and/or it is visibly turbid or contains particles)","+ (“+” denotes solubility at the given condition, as determined by UV absorbance being less than 0.1 AU at 340 nm and the sample being clear when manually inspected)","+ (“+” denotes solubility at the given condition, as determined by UV absorbance being less than 0.1 AU at 340 nm and the sample being clear when manually inspected)","+ (“+” denotes solubility at the given condition, as determined by UV absorbance being less than 0.1 AU at 340 nm and the sample being clear when manually inspected)"
